Results on twelve compounds are retold here after patent US7018642B2 (The Procter & Gamble Company, priority 2001, dated 2006).

Type in all cases: cell-based
The test system of experiment [1] is P. fluorescens strain ATCC 13525. Description: Improved biofilm dispersion screen (already-formed biofilms, crystal violet). Particulars: Pseudomonas fluorescens, ATCC13525, 20 mM NaOH step, positive = dispersion, negative = enhancement of pre-existing biofilm, quadruplicate, read-out: average percentage reduction of biofilm relative to the two control values (dispersion). The essentials:
(§1)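 Biofilms were grown 24 h in duplicate plates without compound; one plate was crystal violet-stained for t0. On the other, fresh medium plus compound at 390 μM final was added for 22–26 h more, with DMSO controls giving t24. Value: average % biofilm reduction versus t0 and t24, quadruplicates.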

Experiment [2] has as its system P. aeruginosa strain PAO1. The experiment is described as above. Conditions: Pseudomonas aeruginosa, 30 mM NaOH step, positive = dispersion, negative = enhancement of pre-existing biofilm, quadruplicate, read-out: average percentage reduction of biofilm relative to the two control values (dispersion). The essentials:
as §1

The test system of experiment [3] is S. epidermidis strain ATCC 35984. The description is as above. Conditions: Staphylococcus epidermidis, ATCC35984, no NaOH, positive = dispersion, negative = enhancement of pre-existing biofilm, quadruplicate, read-out: average percentage reduction of biofilm relative to the two control values (dispersion). The essentials:
as §1

In experiment [4] the test system is P. fluorescens strain ATCC 13525. Description: Biofilm prevention screen (96-well microplate, crystal violet). Conditions: Pseudomonas fluorescens, positive = prevention, negative = enhancement of biofilm formation, quadruplicate, read-out: average percentage reduction of biofilm formed relative to DMSO controls; for inhibition at 32 µM: ATCC13525, 32 μM; for inhibition at 160 µM: ATCC13525, 160 μM; for inhibition at 390 µM: ATCC13525, 390 μM. The essentials:
(§2)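 Read-out is the mean % change in crystal-violet-stained biofilm (A586) against DMSO wells, quadruplicates, with positive values meaning prevention. Final compound levels were 250–500 μM plus dilutions such as 160 and 32 μM. Incubation ran 16–26 h with shaking, 30° C. for P. aeruginosa PAO1 and P. fluorescens, 37° C. for S. epidermidis, each in a strain-specific modified medium.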

Experiment [5] relates to P. aeruginosa strain PAO1. The description is as above. Particulars: Pseudomonas aeruginosa, positive = prevention, negative = enhancement of biofilm formation, quadruplicate, read-out: average percentage reduction of biofilm formed relative to DMSO controls. The essentials: as §2
The test system of experiment [6] is S. epidermidis strain ATCC 35984. Described as above. Particulars: Staphylococcus epidermidis, positive = prevention, negative = enhancement of biofilm formation, quadruplicate, read-out: average percentage reduction of biofilm formed relative to DMSO controls; for inhibition at 32 µM: ATCC35984, 32 μM; for inhibition at 160 µM: ATCC35984, 160 μM; for inhibition at 390 µM: ATCC35984, 390 μM. The essentials:
as §2

Regarding `CCCCNC(=O)[C@@H]1CCCN1C(=O)OC(C)(C)C` [Compound 155], the inhibition at 390 µM in experiment [1] was 3%; in experiment [2], -12%; in experiment [3] it was -4%; in experiment [4], 4%; in experiment [5], 6%; in experiment [6], 21%. The inhibition at 32 µM in experiment [4] was 10%; in experiment [5], -5%; in experiment [6] it was -3%. Also, the inhibition at 160 µM was 4% in experiment [4], 2% in experiment [5] and -1% in experiment [6].
On to `CCCCCCCCCCNC(=O)[C@H]1CCCN1C(=O)OC(C)(C)C` [Compound 158], for which the inhibition at 390 µM in experiment [1] was -79%; in experiment [2] it was -53%; in experiment [3] it was 0%; in experiment [4] it was -40%; in experiment [5], -40%; in experiment [6], 54%. In addition, the inhibition at 32 µM is 3% in experiment [4], 1% in experiment [5] and -10% in experiment [6]. Besides, the inhibition at 160 µM was -11% in experiment [4], -34% in experiment [5] and 52% in experiment [6].
For `CCCCCCCCCCCCNC(=O)[C@H]1CCCN1C(=O)OC(C)(C)C` [Compound 159], the inhibition at 390 µM in experiment [1] is -94%; in experiment [2], -55%; in experiment [3], 0%; in experiment [4], -13%; in experiment [5], -50%; in experiment [6], -3%. Further, the inhibition at 32 µM in experiment [4] was -1%; in experiment [5], -9%; in experiment [6], -9%. In addition, the inhibition at 160 µM was -3% in experiment [4], -38% in experiment [5] and -20% in experiment [6].
For the compound `CCCCCCCCCCCCNC(=O)[C@@H]1CCCN1C(=O)OC(C)(C)C` [Compound 160], the inhibition at 390 µM is -44% in experiment [1]; -52% in experiment [2]; 0% in experiment [3]; -18% in experiment [4]; -59% in experiment [5]; 29% in experiment [6]. In addition, the values for the inhibition at 32 µM in experiment [4], in experiment [5] and in experiment [6] were -1%, -2% and -9%, respectively. For the same compound, the inhibition at 160 µM in experiment [4] is 0%; in experiment [5], -44%; in experiment [6] it was 20%.
For `CCCCNC(=O)[C@H]1CCCN1` [Compound 162], the inhibition at 390 µM in experiment [1] is 0%; in experiment [2] it was -23%; in experiment [3] it was 0%; in experiment [4] it was 11%; in experiment [5], -9%; in experiment [6], -47%. Further, the inhibition at 32 µM is 7% in experiment [4], -9% in experiment [5] and -4% in experiment [6]. Besides, the figures for the inhibition at 160 µM in experiment [4], in experiment [5] and in experiment [6] were 1%, -13% and -8%, respectively.
Turning to `CCCCCCNC(=O)[C@H]1CCCN1` [Compound 163], the inhibition at 390 µM in experiment [1] was 12%; in experiment [2], 4%; in experiment [3], -5%; in experiment [4] it was 22%; in experiment [5] it was 46%; in experiment [6], -10%. Moreover, the inhibition at 32 µM is 5% in experiment [4], 1% in experiment [5] and -3% in experiment [6]. Further, the figures for the inhibition at 160 µM in experiment [4], in experiment [5] and in experiment [6] were 6%, 22% and -5%, respectively.
As for `CCCCCCCCNC(=O)[C@H]1CCCN1` [Compound 164], the inhibition at 390 µM in experiment [1] was 47%; in experiment [2] it was 38%; in experiment [3], -3%; in experiment [4], 54%; in experiment [5] it was 12%; in experiment [6], -35%. The results for the inhibition at 32 µM in experiment [4], in experiment [5] and in experiment [6] were 8%, 6% and -8%, respectively. Moreover, the figures for the inhibition at 160 µM in experiment [4], in experiment [5] and in experiment [6] were 7%, 11% and -1%, respectively.
For the compound `CCCCNC(=O)[C@@H]1CCCN1` [Compound 165], the inhibition at 390 µM in experiment [1] was 6%; in experiment [2] it was 0%; in experiment [3], -3%; in experiment [4], 20%; in experiment [5], 1%; in experiment [6] it was -12%. For the same compound, the results for the inhibition at 32 µM in experiment [4], in experiment [5] and in experiment [6] were 10%, 2% and -6%, respectively. In addition, the inhibition at 160 µM in experiment [4] is 4%; in experiment [5] it was -16%; in experiment [6], -15%.
On to `CCCCCCCCCCNC(=O)[C@H]1CCCN1` [Compound 166], for which the inhibition at 390 µM in experiment [1] is 0%; in experiment [2], -2%; in experiment [3] it was 70%; in experiment [4] it was 98%; in experiment [5], 96%; in experiment [6] it was 101%. Also, the inhibition at 32 µM stood at 0% in experiment [4], 10% in experiment [5] and 13% in experiment [6]. Besides, the figures for the inhibition at 160 µM in experiment [4], in experiment [5] and in experiment [6] were 57%, 22% and 100%, respectively.
Turning to `CCCCCCCCCCCCNC(=O)[C@H]1CCCN1` [Compound 167], the inhibition at 390 µM in experiment [1] amounted to 0%; in experiment [2] it was 4%; in experiment [3], 78%; in experiment [4] it was 92%; in experiment [5] it was 93%; in experiment [6] it was 99%. The inhibition at 32 µM in experiment [4] is 38%; in experiment [5], 4%; in experiment [6] it was 40%. Further, the inhibition at 160 µM in experiment [4] stood at 95%; in experiment [5], 49%; in experiment [6], 100%.
In the case of `CC(C)(C)OC(=O)N1CCC[C@@H]1C(=O)NCCCCCCCCCCCCNC(=O)[C@H]1CCCN1C(=O)OC(C)(C)C` [Compound 225, N-(tert-Butoxycarbonyl)-D-proline 1,12-diaminododecane bisamide], the inhibition at 390 µM in experiment [1] was -85%; in experiment [2] it was -23%; in experiment [3], 0%; in experiment [4], -14%; in experiment [5] it was -8%; in experiment [6], -39%. Further, the inhibition at 32 µM in experiment [4] is 14%; in experiment [5] it was 11%; in experiment [6], -21%. Moreover, the inhibition at 160 µM in experiment [4] is 0%; in experiment [5], 7%; in experiment [6], -24%.
`CCCCCCNC(=O)[C@@H]1CCN1C(=O)OC(C)(C)C` [Compound 283]: the inhibition at 390 µM in experiment [1] is 0%; in experiment [2] it was -11%; in experiment [3], -11%; in experiment [4], 13%; in experiment [5], 0%; in experiment [6] it was -23%. The inhibition at 32 µM in experiment [4] was 3%; in experiment [5], -7%; in experiment [6], -3%. Also, the inhibition at 160 µM in experiment [4] is -1%; in experiment [5] it was -10%; in experiment [6] it was -10%.
